“Also recorded” adds a separate entry of the source.
Key:
DRG explants = experiment: Neurite outgrowth from DRG explants; assay type: cell-based, C57B1/6 mice; conditions: 1 μM GM-284, 96 h
Experimental: (A) DRGs were explanted and cultured alone, (panel i), in the presence of 100 ng/ml NGF (panel ii) or in the presence of 1 μM GM-284 (panel iii), for 96 h. At the end of the culture period, the tissue was fixed and stained for expression of neuron-specific β-III tubulin. […] (B) Both Schwann cells and neurons are present in DRG explants. To determine if the neuritogenic effects of GM-284 are direct, acting on neurons, or indirect, acting through Schwann cells, sensory neurons from E18 mice were isolated and treated with either NGF (left panel) or GM-284 (right panel) for 6 days.
Explanted DRG ganglia were dissected from P1 to P3 C57B1/6 mice, as previously described (Weinstein et al., Targeted expression of an oncogenic adaptor protein v-Crk potentiates axonal growth in dorsal root ganglia and motor neurons in vivo. Brain Res. Dev. Brain Res., 116:29-39, 1999). Briefly, DRGs were dissected and placed in ice-cold PBS containing 2% glucose, then transferred onto polyornithine/laminin-coated tissue culture plates (Biocoat, Becton Dickinson Laboratories) in DMEM-plating medium overnight. […] Cultures were kept at 37° C., in 5% CO2, for up to 1 week, at which time the extent of well-defined neurite outgrowth was assessed.

[1] = target: T1, full-length FKBP52 (GST fusion protein) (Homo sapiens, UniProt Q02790); experiment: 3H-FK506 competition assay on bead-immobilized GST-FKBP52; assay type: binding; conditions: 10 nM FK506 with 3H-dihydro-FK506, 200-fold molar excess of cold ligand
T1 construct: GST-FKBP52 was constructed by PCR amplification of full-length FKBP52 from the pcDNA3 vector; made in house; host or cells: bacteria
T1 sequence (Q02790 1-459): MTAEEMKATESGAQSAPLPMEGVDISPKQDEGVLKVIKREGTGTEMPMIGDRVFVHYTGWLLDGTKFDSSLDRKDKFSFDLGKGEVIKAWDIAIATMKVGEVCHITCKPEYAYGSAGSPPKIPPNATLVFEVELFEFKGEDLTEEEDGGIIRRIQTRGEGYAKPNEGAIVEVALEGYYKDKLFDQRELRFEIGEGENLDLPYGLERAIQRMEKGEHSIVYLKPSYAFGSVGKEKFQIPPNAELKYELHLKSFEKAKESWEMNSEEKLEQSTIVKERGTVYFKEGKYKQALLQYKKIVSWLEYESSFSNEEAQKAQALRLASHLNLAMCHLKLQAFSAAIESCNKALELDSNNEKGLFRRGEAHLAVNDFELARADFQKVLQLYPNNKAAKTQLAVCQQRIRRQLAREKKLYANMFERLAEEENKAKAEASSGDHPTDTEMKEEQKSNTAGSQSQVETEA
Experimental: There was virtually no binding of GST alone to FKBP52 (not shown). […] Full-length FKBP52 was expressed as a GST fusion protein, purified over GSH-Sepharose resin. […] After extensive washing, the bound fraction (gray bars) was determined by liquid scintillation counting. […] Values are averages (with standard deviations) of three independent experiments.
Competition of […] binding to FKBP52 was carried out on GSH Sepharose beads from GST-FKBP52 expressed in bacteria. Briefly, GST-FKBP52 was constructed by PCR amplification of full-length FKBP52 from the pcDNA3 vector (Invitrogen, Carlsbad, Calif.), with FKBP52-specific primers flanked by EcORI/BamH1 restriction endonuclease sites. A 1.4-kb fragment was subsequently ligated into EcORI/BamH1, and digested with CIP-treated pGEX-6p to obtain a GST-fusion protein. The correct reading frame was verified by DNA sequencing. GST-FKBP52 fusion proteins were generated upon induction with 0.1 mM IPTG (from a 500-ml culture), and bacterial lysates were incubated with GSH Sepharose beads (Pharmacia, Peapack, N.J.) to collect FKBP52. Following several washes, first in bacterial lysis buffer and subsequently in PBS, the FKBP52 was over 90% pure, and was used for in vitro competition studies.

[2] = system: TrkA-overexpressing PC12 cells; experiment: Schwann cell conditioned media on TrkA-overexpressing PC12 cells; assay type: cell-based; conditions: Schwann cells 1 μM GM-284 48 h; CM on PC12 72 h
Experimental: Wild-type and TrkA-overexpressing PC12 cells (Hempstead et al., Overexpression of the trk tyrosine kinase rapidly accelerates nerve growth factor-induced differentiation. Neuron, 9:883-96, 1992) were maintained in DMEM supplemented with 10% calf serum and 5% horse serum, the latter of which was also supplemented with 200 μg/ml G418 to maintain TrkA selection. Cultures were treated with 100 ng/ml NGF or the immunophilin ligands, or treated with Schwann-cell-conditioned medium supplemented with 5% horse serum, as indicated below. To generate GFP-expressing PC12 cells, a bicistronic pCX-bsr retroviral vector (Escalante et al., Phosphorylation of c-Crk II on the negative regulatory Tyr222 mediates nerve growth factor-induced cell spreading and morphogenesis. J. Biol. Chem., 275:24787-797, 2000), which drives expression of green fluorescent protein (GFP), was used to infect dividing PC12 cells.
To more directly examine the involvement of Schwann cells in mediating the neuritogenic capacities of GM-284, PC12 cells were infected with GFP-expressing retrovirus, and co-cultured on monolayers of Schwann cells, in the presence of either NGF, GM-284, or vehicle, for 48 h (FIG. 4B, panels a-c). […]

CCC(C)(C)C(=O)C(=O)N1CCC[C@H]1c1nnc([C@@H]2CCCN2C(=O)C(=O)C(C)(C)CC)o1 [GM-284]
neurite outgrowth from DRG explants (DRG explants): as active as NGF in inducing neuritogenesis; also recorded: indistinguishable from NGF-treated sister explants; also recorded: comparable outgrowth in the NGF and GM-284 treated cultures
competition for binding of 3H-FK506 to immobilized FKBP52 [1]: bind to FKBP52 with similar affinities; also recorded: each ligand is able to compete for binding to the receptor; also recorded: competes with FK506 for binding to full-length FKBP52
neurite outgrowth induced by conditioned media from treated Schwann cells [2]: promoted significant neurite outgrowth; also recorded: Neurite promotion was observed only in the GM-284-treated Schwann cells' conditioned media

— patent US20040266811A1, “Methods for inducing regeneration, remyelination, and hypermyelination of nervous tissue” (priority 2002, published 2004)
